Assay results: ChEMBL document CHEMBL3808350, “Stacking with No Planarity?” (ACS Med Chem Lett, 2016)

Key:
[1] = target: Aminopeptidase B (Homo sapiens, UniProt Q9H4A4); assay: Inhibition of aminopeptidase B (unknown origin)
[2] = target: T1, Bifunctional epoxide hydrolase 2 (Homo sapiens, UniProt P34913); assay: Inhibition of sEH (unknown origin)
T1 sequence (P34913 whole entry): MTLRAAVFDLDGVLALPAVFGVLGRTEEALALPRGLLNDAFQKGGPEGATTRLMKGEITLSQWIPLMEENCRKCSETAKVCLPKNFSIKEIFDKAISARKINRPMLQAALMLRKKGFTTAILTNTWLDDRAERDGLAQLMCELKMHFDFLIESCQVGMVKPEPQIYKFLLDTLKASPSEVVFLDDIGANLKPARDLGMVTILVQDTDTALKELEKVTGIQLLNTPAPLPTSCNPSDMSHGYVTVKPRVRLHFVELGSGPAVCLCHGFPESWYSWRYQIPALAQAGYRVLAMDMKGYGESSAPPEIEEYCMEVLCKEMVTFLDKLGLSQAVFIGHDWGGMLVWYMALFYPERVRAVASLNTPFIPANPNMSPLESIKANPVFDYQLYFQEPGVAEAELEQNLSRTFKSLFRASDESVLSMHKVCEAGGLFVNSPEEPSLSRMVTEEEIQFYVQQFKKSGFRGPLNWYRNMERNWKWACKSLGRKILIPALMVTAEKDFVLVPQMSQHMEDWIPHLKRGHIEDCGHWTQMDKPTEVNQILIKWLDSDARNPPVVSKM

[3] = Displacement of (Z)-5-(4-(3-carboxy-3-hydroxyacryloyl)-4-(4-chlorobenzyl)piperidine-1-carbonyl)-2-(6-hydroxy-3-oxo-3H-xanthen-9-yl)benzoic acid from Influenza A virus (A/Viet Nam/1203/2004(H5N1)) recombinant C-terminal 10X-His-tagged polymerase acidic protein (1 to 209 residues) expressed in Escherichia coli BL21 (DE3) after 30 mins by fluorescence polarization assay

Chain of Aminopeptidase B (Q9H4A4 whole entry): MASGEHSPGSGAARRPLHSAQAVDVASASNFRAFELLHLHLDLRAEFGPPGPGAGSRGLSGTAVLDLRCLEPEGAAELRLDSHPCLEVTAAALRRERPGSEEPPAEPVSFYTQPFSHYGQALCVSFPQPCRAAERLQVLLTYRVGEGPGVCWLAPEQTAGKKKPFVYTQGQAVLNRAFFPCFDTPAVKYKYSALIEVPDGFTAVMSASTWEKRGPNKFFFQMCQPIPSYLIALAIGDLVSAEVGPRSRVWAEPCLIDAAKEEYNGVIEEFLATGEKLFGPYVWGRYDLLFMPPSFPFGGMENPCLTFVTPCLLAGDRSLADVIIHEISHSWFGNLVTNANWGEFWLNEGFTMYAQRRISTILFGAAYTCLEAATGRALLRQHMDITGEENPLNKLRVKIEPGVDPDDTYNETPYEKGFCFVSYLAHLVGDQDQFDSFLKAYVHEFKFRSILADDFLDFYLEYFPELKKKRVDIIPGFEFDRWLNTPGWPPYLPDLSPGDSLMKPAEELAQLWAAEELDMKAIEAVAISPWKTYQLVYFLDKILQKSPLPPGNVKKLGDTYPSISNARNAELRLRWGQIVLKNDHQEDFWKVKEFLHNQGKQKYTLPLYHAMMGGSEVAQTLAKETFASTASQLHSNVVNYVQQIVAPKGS

Compound	IC50 [1] [nM]	Ki [3] [nM]	other results
CC(C)C[C@H](NC(=O)[C@@H](O)[C@H](N)Cc1ccccc1)C(=O)O [UBENIMEX]	160000	–	–
O=C(Nc1ccccc1)NC1CCCCC1	–	–	IC50 [2]: 760 nM
CC(C)C[C@H](NC(=O)[C@@H](O)[C@H](N)CC1CCCCC1)C(=O)O	3500	–	–
O=C(O)/C(O)=C/C(O)C1(Cc2ccc(Cl)cc2)CCN(CC2CCCCC2)CC1 (stereo not given)	–	84	–
O=C(O)/C(O)=C/C(O)C1(Cc2ccc(Cl)cc2)CCN(Cc2ccccc2)CC1 (stereo not given)	–	90	–
